Positions of bridges follow the written chain, without caps; N, C: chain ends. Residues, ends and D or L forms follow the SMILES beside them. Chains are numbered I, II in the order given. *: point of attachment. Chenodeoxycholyl = C[C@H](CCC(=O)*)[C@H]1CC[C@H]2[C@@H]3[C@H](O)C[C@@H]4C[C@H](O)CC[C@]4(C)[C@H]3CC[C@]12C
Test system: JIMT-1 breast cancer cells
Experiment: Cell cytotoxicity assay (PrestoBlue)
Format: cell-based
Procedure: 50 mg of CDCA-C-SV40 monomers (or other steroid acid-peptide monomers) were resuspended in 200-500 μL of DMSO. 10 eq of N,N-Diisopropylethylamine (DIPEA) was added to the mixture and incubated in a thermomixer at 37° C. with agitation (1000 rpm) overnight, enabling dimerization of the monomers via their N-terminal cysteine thiol groups to produce (CDCA-C-SV40)2 or other dimers. The samples were then analyzed by UPLC-MS to evaluate dimer formation efficiency. Cell toxicity was evaluated via a Cell Toxicity assay (PrestoBlue™).
In a T75 flask of confluent JIMT-1 cells (at least 75%), the culture medium was removed, and 2 mL of trypsin was then added and incubated at 37° C. for about 5 minutes or until the cells detached. The trypsin was inactivated by adding 10 mL of culture medium, the cells were centrifuged at 950 rpm for 5 minutes at 4° C., viable cells were visualized with trypan blue and counted using a hematocytometer. Cells were then plated in a 96-well plate at 5000 cells/well and incubated at 37° C. for 24 hours. Trastuzumab-(CDCA-C-SV40)2 or T-DM1-(CDCA-C-SV40)2 was then added to the cells and incubated for 72 hours at 37° C. […] Fluorescence (excitation: 535-560 nm, emission: 590-615 nm) was measured. The cells were further incubated for another 30 minutes, and a second fluorescence reading was taken.

CC(C)[C@H](NC(=O)[C@H](CCCCN)NC(=O)CNC(=O)[C@H](Cc1ccc(O)cc1)NC(=O)CNC(=O)[C@H](CO)NC(=O)[C@H](CSSC[C@H](NC(=O)CC[C@@H](C)[C@H]1CC[C@H]2[C@@H]3[C@H](O)C[C@@H]4C[C@H](O)CC[C@]4(C)[C@H]3CC[C@]12C)C(=O)N[C@@H](CO)C(=O)NCC(=O)N[C@@H](Cc1ccc(O)cc1)C(=O)NCC(=O)N[C@@H](CCCCN)C(=O)N[C@H](C(=O)N[C@@H](CO)C(=O)N[C@@H](CCCNC(=N)N)C(=O)N[C@@H](CCCNC(=N)N)C(=O)NCC(=O)NCC(=O)N[C@@H](Cc1c[nH]cn1)C(=O)N[C@@H](CCC(N)=O)C(=O)N[C@@H](CC(N)=O)C(=O)N[C@@H](CO)C(=O)N[C@@H](Cc1ccc(O)cc1)C(=O)N[C@@H](CCCCN)C(=O)N1CCC[C@H]1C(=O)N[C@@H](Cc1ccc(O)cc1)C(=O)O)C(C)C)NC(=O)CC[C@@H](C)[C@H]1CC[C@H]2[C@@H]3[C@H](O)C[C@@H]4C[C@H](O)CC[C@]4(C)[C@H]3CC[C@]12C)C(=O)N[C@@H](CO)C(=O)N[C@@H](CCCNC(=N)N)C(=O)N[C@@H](CCCNC(=N)N)C(=O)NCC(=O)NCC(=O)N[C@@H](Cc1c[nH]cn1)C(=O)N[C@@H](CCC(N)=O)C(=O)N[C@@H](CC(N)=O)C(=O)N[C@@H](CO)C(=O)N[C@@H](Cc1ccc(O)cc1)C(=O)N[C@@H](CCCCN)C(=O)N1CCC[C@H]1C(=O)N[C@@H](Cc1ccc(O)cc1)C(=O)O [(CDCA-C-hnRNP D NLS)2] (I: Chenodeoxycholyl-CSGYGKVSRRGGHQNSYKPY-OH / II: Chenodeoxycholyl-CSGYGKVSRRGGHQNSYKPY-OH; disulfide I:1-II:1)
cytotoxicity of dimerized version vs monomer: enhancement of cytotoxicity

Source: US12233130B2, “Covalently-modified steroid acid-peptides having enhanced stability and/or biological activity” (DEFENCE THERAPEUTICS INC., priority 2022, dated 2025)
